{
  "source": "paper PMC11943016",
  "about": "“TBG096 Ameliorates Memory Deficiency in AD Mouse Model via Promoting Neurogenesis and Regulation of Hsc70/HK2/PKM2/LAMP2A Signaling Pathway” (International Journal of Molecular Sciences, 2025)",
  "key": {"PC12 cells": {"system": "PC12 cells", "assay": "NGF-mimic activity: neurite outgrowth in PC12 cells", "assay_type": "cell-based", "settings": "48 h", "experimental": "The neurogenic activity of samples was evaluated according to the methods described in our previous study. Briefly, approximately 5 × 10^4 cells were seeded in each well of a 24-well microplate and were cultured under a humidified atmosphere with 5% CO2 at 37 °C for 24 h. Then, the medium in each well was replaced with 1 mL of serum-free DMEM containing 40 ng/mL NGF as a positive control, 0.5% DMSO as a negative control, and the test sample after 24 h, respectively. About 100–200 cells of each well were counted from a randomly selected area and repeated thrice after 48 h. A cell-bearing neurite outgrowth longer than the diameter of the cell body was identified as a positive cell. The activity was presented as the percentage of positive cells in the selected area.\nIn the inhibitor experiment of NGF-mimic activity, approximately 5 × 10^4 PC12 cells were seeded into each well of a 24-well plate and incubated for 24 h. After that, the medium in each well was replaced with 500 μL of serum-free DMEM or the serum-free DMEM containing VER155008, the inhibitor of Hsc70 protein, incubated in a CO2 incubator for 30 min. Subsequently, 500 μL of serum-free DMEM containing different samples was added and cultured, respectively. The PC12 cells with neurite outgrowth were recorded after 48 h. For the Western blot analysis, the experiment included five groups, namely the control (C) group, the NGF (40 ng/mL) group, the TBG096 (1 µM) group, the VER155008 (3 µM) group, and the VER155008 (3 µM) + TBG096 (1 µM) group. Afterwards, approximately 2 × 10^6 cells per dish were seeded into ten 6 cm Petri dishes with 5 mL of DMEM medium and incubated for 24 h. After giving different treatments with samples, the cells continued to culture for 4 h. Protein extraction was conducted to prepare for the subsequent Western blot analysis."}, "HFD-induced AD mice": {"system": "HFD-induced AD mice", "assay": "Immunofluorescence staining of brain tissue of HFD-induced AD mice", "assay_type": "in vivo", "text": "In experiments with the HFD-induced AD mouse model, a total of 60 Institute of Cancer Research (ICR) male mice aged 4 weeks from Zhejiang Academy of Medical Sciences (Hangzhou, China) were used for animal experiments (permit number: ZJU20230121). The animals were provided free access to a chow diet and water. […] The HFD and normal diet were alternated every two days to maintain freshness. Weekly measurements were taken for water intake, food intake, and body weight. In the eighteenth week, the mice underwent Y-maze and NOR tests. The Morris water maze test was conducted during the nineteenth week. After confirming the successful establishment of the AD model characterized by cognitive impairment, oral administration of treatments commenced. […] Each group had 10 mice.\nAt the end of animal experiments, three mice in each group were taken for heart perfusion with cold PBS and 4% paraformaldehyde. After that, the brains of mice were fixed with 4% paraformaldehyde for 24 h and gradually dehydrated with 15% and 30% sucrose solutions for 48 h, respectively. The fixed and embedded brain sample was placed in a cryostat and cut into 20 µm thick slices with a cryostat (Thermo Fisher, Waltham, MA, USA), and brain slices in the hippocampus and cortex were collected. Finally, the brain slices were placed in antifreeze (glycerol/ethylene/PBS = 3:3:4) and kept in a refrigerator at −30 °C until immunostaining. The brain slices were fixed on a glass slide and hydrated with PBS for 5 min. Then, blocking buffer was added to the brain slices and incubated at room temperature for 1 h. Brain slices were washed twice with PBS and incubated with anti-NeuN, anti-BrdU, anti-Iba1, anti-GFAP, anti-INOS, anti-APP, or anti-p-Tau at 4 °C for 24 h, respectively. Subsequently, the brain slices were incubated with secondary antibody (goat anti-rabbit IgG H&L (Alexa Fluor® 488) or rabbit anti-mouse IgG (Cy3 conjugate)) at room temperature for 2 h after washing with PBS three times. Finally, a cover glass was used to lightly cover the slices stained with DAPI. […] Biomarker proteins in the cerebral cortex and hippocampus were digitized by Image J software (National Institutes of Health, Bethesda, MD, USA)."}},
  "data": [
    {"smiles": "O=C(SCCCCCCSCCCC(F)(F)F)c1cccc(O)c1O", "note": "[TBG096]", "values": [
      {"measurement": "percentage of PC12 cells exhibiting neurite growth", "setting": "PC12 cells; 0.3, 1, and 3 µM, listed as 3", "value": "superior activity"},
      {"measurement": "NGF-mimic effect after treatment with VER155008 (Hsc70 inhibitor)", "setting": "PC12 cells; PC12 cells", "value": "significantly diminished"},
      {"measurement": "APP and phosphorylation Tau protein in the hippocampus", "setting": "HFD-induced AD mice; immunofluorescence", "value": "reduction"},
      {"measurement": "Iba1, GFAP, INOS markers (activated microglia, astrocytes, M1 macrophages) in the hippocampus", "setting": "HFD-induced AD mice; vs HFD-only", "value": "significantly reduced"},
      {"measurement": "number of mature neurons (NeuN) in the cerebral cortex", "setting": "HFD-induced AD mice; vs HFD-only group", "value": "increased numbers of mature neurons"}
    ]}
  ]
}
